Laboratory results reported in ChEMBL document CHEMBL4020846 (J Med Chem, 2018).
pEC50: −log10 of the molar value. Activity calls are given as the source filed them. No cut-off for these calls is given here.

Assays:
[1] = molecular target: T1, Nucleotide-binding oligomerization domain-containing protein 1 (Homo sapiens) (UniProt Q9Y239); assay: Agonist activity at human NOD1 expressed in HEK-Blue cells assessed as induction of NF-kB transcriptional activity at 20 uM after 18 hrs by SEAP reporter gene assay; format: cell-based
T1 sequence (whole entry): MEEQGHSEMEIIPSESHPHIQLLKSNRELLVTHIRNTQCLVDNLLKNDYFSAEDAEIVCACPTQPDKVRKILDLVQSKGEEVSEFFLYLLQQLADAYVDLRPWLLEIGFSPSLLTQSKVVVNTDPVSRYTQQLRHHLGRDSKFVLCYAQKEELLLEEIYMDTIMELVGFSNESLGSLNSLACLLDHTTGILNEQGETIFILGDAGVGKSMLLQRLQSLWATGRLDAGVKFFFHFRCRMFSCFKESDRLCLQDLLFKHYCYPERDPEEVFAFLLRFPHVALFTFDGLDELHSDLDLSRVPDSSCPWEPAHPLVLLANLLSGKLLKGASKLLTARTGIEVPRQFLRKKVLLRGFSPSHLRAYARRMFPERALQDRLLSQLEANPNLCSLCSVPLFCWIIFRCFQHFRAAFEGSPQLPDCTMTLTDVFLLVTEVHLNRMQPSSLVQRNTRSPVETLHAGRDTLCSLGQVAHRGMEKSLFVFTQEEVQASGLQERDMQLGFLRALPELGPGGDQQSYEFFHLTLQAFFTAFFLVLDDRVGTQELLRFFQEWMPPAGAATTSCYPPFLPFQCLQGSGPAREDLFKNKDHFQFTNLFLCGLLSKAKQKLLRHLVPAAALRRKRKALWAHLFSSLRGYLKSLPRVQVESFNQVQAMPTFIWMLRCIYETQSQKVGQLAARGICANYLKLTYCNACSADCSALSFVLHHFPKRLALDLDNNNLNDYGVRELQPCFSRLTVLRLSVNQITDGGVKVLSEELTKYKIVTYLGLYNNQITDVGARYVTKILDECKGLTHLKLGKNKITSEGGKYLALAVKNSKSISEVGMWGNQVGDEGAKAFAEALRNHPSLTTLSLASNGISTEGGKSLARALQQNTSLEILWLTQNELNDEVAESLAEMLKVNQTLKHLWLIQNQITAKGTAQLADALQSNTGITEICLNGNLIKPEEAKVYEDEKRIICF

[2] = system: Mus musculus; assay: Immunoadjuvant activity in ovalbumin-induced NIH/OlaHsd mouse model of adjuvancy assessed as induction of ovalbumin-specific humoral immune response by measuring increase in anti-OVA IgG level in serum at 200 ug, sc using liposome encapsulated compound measured on day 7 post second booster by ELISA; format: functional, organism-based
[3] = system: PBMC; assay: Immunostimulatory activity in human PBMC assessed as increase in IL-10 release at 2 uM after 18 hrs by flow cytometry; format: functional, cell-based
[4] = system: PBMC; assay: Immunostimulatory activity in human PBMC assessed as increase in TNF-alpha release at 2 uM after 18 hrs in presence of LPS by flow cytometry relative to control; format: functional
[5] = system: PBMC; assay: Immunostimulatory activity in human PBMC assessed as increase in TNF-alpha release at 2 uM after 18 hrs by flow cytometry; format: functional, cell-based
[6] = system: PBMC; assay: Immunostimulatory activity in human PBMC assessed as increase in IL-4 release at 2 uM after 18 hrs in presence of LPS by flow cytometry; format: functional, cell-based
[7] = system: PBMC; assay: Immunostimulatory activity in human PBMC assessed as increase in IL-17A release at 2 uM after 18 hrs in presence of LPS by flow cytometry; format: functional, cell-based
[8] = system: PBMC; assay: Immunostimulatory activity in human PBMC assessed as increase in IL-6 release at 2 uM after 18 hrs by flow cytometry; format: functional, cell-based
[9] = system: PBMC; assay: Immunostimulatory activity in human PBMC assessed as increase in IL-6 release at 2 uM after 18 hrs in presence of LPS by flow cytometry relative to control; format: functional
[10] = molecular target: T2, Nucleotide-binding oligomerization domain-containing protein 2 (Homo sapiens, UniProt Q9HC29); assay: Agonist activity at human NOD2 expressed in HEK-Blue cells assessed as induction of NF-kB transcriptional activity at 2 uM after 18 hrs by SEAP reporter gene assay relative to control; format: cell-based
[11] = molecular target: T2, Nucleotide-binding oligomerization domain-containing protein 2; assay: Agonist activity at human NOD2 expressed in HEK-Blue cells assessed as induction of NF-kB transcriptional activity at 2 uM after 18 hrs in presence of NOD2 antagonist GSK-669 by SEAP reporter gene assay; format: cell-based
[12] = system: PBMC; assay: Immunostimulatory activity in human PBMC assessed as increase in IL-10 release at 2 uM after 18 hrs in presence of LPS by flow cytometry relative to control; format: functional
[13] = system: Mus musculus; assay: Immunoadjuvant activity in ovalbumin-induced NIH/OlaHsd mouse model of adjuvancy assessed as modulation of Th1/Th2-bias of induced immune response by measuring ratio of anti-OVA IgG1 to anti-OVA IgG2a level in serum at 200 ug, sc using liposome encapsulated compound measured on day 7 post second booster by ELISA (reference value: 1.69 +/- 0.28); format: functional
[14] = system: PBMC; assay: Immunostimulatory activity in human PBMC assessed as increase in IL-2 release at 2 uM after 18 hrs in presence of LPS by flow cytometry; format: functional, cell-based
[15] = system: PBMC; assay: Immunostimulatory activity in human PBMC assessed as increase in IFNgamma release at 2 uM after 18 hrs in presence of LPS by flow cytometry; format: functional, cell-based
[16] = Cytotoxicity against HEK-Blue cells over-expressing NOD2 assessed as residual metabolic activity at 20 uM after 18 hrs by CellTiter 96 aqueous one solution cell proliferation assay relative to control; format: ADME, cell-based; settings: human, read-out: Activity
[17] = molecular target: T2, Nucleotide-binding oligomerization domain-containing protein 2; assay: Agonist activity at human NOD2 expressed in HEK-Blue cells assessed as induction of NF-kB transcriptional activity after 18 hrs by SEAP reporter gene assay; format: cell-based
[18] = Drug metabolism in HEK293 cells assessed as retention time at 2 uM by LC-MS analysis; format: ADME, cell-based; settings: human, hek293, 2 µM
[19] = molecular target: T2, Nucleotide-binding oligomerization domain-containing protein 2; assay: Agonist activity at human NOD2 expressed in HEK-Blue cells assessed as induction of NF-kB transcriptional activity at 20 uM after 18 hrs by SEAP reporter gene assay; format: cell-based
[20] = Stability in HEK293 cells at 2 uM up to 18 hrs by LC-MS analysis; format: ADME, cell-based; settings: human, hek293, 18 h
[21] = Drug level in HEK293 cells cytosol at 2 uM after 18 hrs by LC-MS analysis; format: ADME, cell-based; settings: human
[22] = Drug uptake in HEK293 cells cytosol at 2 uM after 18 hrs by LC-MS analysis; format: ADME, cell-based; settings: human
[23] = Pyrogenic activity in Atlantic horseshoe crab blood limulus amebocyte lysate by bacterial endotoxin test; format: ADME; settings: limulus polyphemus

T2 sequence (Q9HC29 whole entry, the tested form may be a part): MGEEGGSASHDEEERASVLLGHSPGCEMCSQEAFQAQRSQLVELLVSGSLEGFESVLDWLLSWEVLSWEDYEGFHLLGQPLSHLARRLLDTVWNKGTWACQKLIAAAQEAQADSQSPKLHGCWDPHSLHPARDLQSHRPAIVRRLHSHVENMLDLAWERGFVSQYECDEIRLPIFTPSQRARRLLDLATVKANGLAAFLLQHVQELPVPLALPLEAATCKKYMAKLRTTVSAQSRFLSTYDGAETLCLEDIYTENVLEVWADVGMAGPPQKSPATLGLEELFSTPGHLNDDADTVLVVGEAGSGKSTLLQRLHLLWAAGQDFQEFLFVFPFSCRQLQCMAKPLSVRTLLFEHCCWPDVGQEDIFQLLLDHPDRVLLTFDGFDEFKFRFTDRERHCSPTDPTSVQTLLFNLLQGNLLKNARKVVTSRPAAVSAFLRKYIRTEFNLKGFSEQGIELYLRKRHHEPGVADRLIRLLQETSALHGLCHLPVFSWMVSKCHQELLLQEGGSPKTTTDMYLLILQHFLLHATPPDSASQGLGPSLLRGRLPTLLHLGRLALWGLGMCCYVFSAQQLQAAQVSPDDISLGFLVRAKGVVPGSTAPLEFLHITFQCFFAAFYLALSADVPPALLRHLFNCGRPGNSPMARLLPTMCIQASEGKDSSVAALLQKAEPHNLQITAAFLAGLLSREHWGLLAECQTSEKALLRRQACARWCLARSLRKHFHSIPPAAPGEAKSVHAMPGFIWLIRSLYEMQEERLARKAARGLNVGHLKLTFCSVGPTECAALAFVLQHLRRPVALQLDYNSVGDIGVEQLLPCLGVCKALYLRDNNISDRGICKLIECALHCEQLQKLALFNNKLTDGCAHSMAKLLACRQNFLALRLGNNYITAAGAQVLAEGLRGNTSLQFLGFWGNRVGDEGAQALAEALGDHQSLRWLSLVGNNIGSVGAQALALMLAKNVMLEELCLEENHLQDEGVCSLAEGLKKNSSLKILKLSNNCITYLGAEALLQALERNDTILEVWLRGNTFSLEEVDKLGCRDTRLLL

Compound	Activity [1]	fold change (FC) [10]	Activity [11]	viability at 18 h, 20 µM [16]	Activity [17]	pEC50 [17]	Activity [19]	other results
CC(=O)N[C@H]1C(O)O[C@H](CO)[C@@H](O)[C@@H]1O[C@H](C)C(=O)N[C@@H](C)C(=O)N[C@H](CCC(=O)O)C(N)=O (some centres undefined) [MURAMYL DIPEPTIDE]	inactive	5.6	inactive	> 80%	Dose-dependent effect	7.04	–	Activity [2]: Active; Activity [3]: Active; fold change (FC) [4]: 3.6; Activity [5]: Active; Activity [6]: Active; Activity [7]: Active; Activity [8]: Active; fold change (FC) [9]: 4; fold change (FC) [12]: 5; Ratio [13]: 133; log(ratio) [13]: 2.37; Activity [14]: Active; Activity [15]: Active
COc1cc(/C=C/C(=O)NCC(=O)N[C@H](C(=O)N[C@H](CCC(=O)O)C(=O)O)C(C)C)ccc1O	inactive	2.7	inactive	> 80%	–	5.16	Active	Retention_time [18]: 2.88 min; Stability [20]: Stable; Drug uptake [21]: 0.4 µM
CCOC(=O)CC[C@@H](NC(=O)[C@@H](NC(=O)CNC(=O)/C=C/c1ccc(O)c(OC)c1)C(C)C)C(=O)OCC	inactive	–	–	> 80%	–	–	–	Drug uptake [22]: 40%; Activity [2]: Active; Activity [23]: Non-Toxic; Activity [3]: Active; fold change (FC) [4]: 3; Activity [5]: Active; Retention_time [18]: 3.53 min; Activity [6]: Active; Activity [7]: Active; Activity [8]: Active; fold change (FC) [9]: 4; Stability [20]: Stable; Drug uptake [21]: 0.13 µM; fold change (FC) [12]: 5; Activity [14]: Active; Activity [15]: Active
CCOC(=O)CC[C@@H](NC(=O)[C@@H](NC(=O)CNC(=O)C1CC1c1ccc(F)c(F)c1)C(C)C)C(=O)OCC (some centres undefined)	inactive	5.8	inactive	> 80%	Dose-dependent effect	6.61	Active	–
CCOC(=O)CC[C@@H](NC(=O)[C@H](Cc1ccccc1)NC(=O)CNC(=O)/C=C/c1ccccc1)C(=O)OCC	inactive	5.3	inactive	> 80%	Dose-dependent effect	6.41	Active	–
CCOC(=O)CC[C@@H](NC(=O)[C@H](Cc1ccccc1)NC(=O)CNC(=O)c1cc2ccc(-c3ccccc3)cc2[nH]1)C(=O)OCC	inactive	4.8	inactive	> 80%	Dose-dependent effect	6.11	Active	–
CCOC(=O)CC[C@@H](NC(=O)[C@H](Cc1ccccc1)NC(=O)CNC(=O)/C=C/c1ccc(F)c(F)c1)C(=O)OCC	inactive	5.4	inactive	> 80%	Dose-dependent effect	6.76	Active	–
